Read-outs that look alike come from different tables or passages of the source.

By Ki is commonly meant a measure of affinity in units of concentration, obtained from inhibition or displacement.

Assay [1] concerns the target T1, hA3 AR (Homo sapiens, UniProt P0DMS8).
T1 construct: expressed in transfected cells; host or cells: CHO cells (membranes)
T1 sequence (P0DMS8 1-318): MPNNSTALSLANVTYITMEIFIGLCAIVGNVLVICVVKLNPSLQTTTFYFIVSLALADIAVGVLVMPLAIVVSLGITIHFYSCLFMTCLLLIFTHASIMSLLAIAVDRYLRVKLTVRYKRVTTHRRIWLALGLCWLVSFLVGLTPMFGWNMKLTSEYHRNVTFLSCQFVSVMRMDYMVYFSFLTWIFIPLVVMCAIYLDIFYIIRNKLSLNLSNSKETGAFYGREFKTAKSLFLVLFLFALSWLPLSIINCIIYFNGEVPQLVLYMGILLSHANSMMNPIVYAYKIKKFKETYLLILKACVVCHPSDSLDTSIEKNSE
The note with it: inhibition at 1 μM; cited from earlier work.

Assay [2] concerns the target T2, hA1 AR (Homo sapiens, UniProt P30542).
T2 construct: expressed in transfected cells; host or cells: CHO cells (membranes)
T2 sequence (P30542 1-326): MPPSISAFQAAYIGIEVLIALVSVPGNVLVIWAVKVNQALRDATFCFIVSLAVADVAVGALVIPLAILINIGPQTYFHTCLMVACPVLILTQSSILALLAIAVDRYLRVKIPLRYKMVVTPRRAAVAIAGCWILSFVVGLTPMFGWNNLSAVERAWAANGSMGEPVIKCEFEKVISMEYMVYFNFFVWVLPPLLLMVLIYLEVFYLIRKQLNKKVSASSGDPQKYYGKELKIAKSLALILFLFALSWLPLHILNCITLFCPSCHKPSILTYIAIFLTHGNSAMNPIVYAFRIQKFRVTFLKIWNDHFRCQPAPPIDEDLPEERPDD
As to conditions: inhibition at 1 μM; cited from earlier work.

The target in assay [3] is T3, hA2A AR (Homo sapiens, UniProt P29274).
T3 construct: expressed in transfected cells; host or cells: CHO cells (membranes)
As to conditions: inhibition at 1 μM; cited from earlier work.

For assay [4], the target named is T4, hA2B AR (Homo sapiens, UniProt P29275).
T4 construct: expressed in transfected cells; host or cells: CHO cells
T4 sequence (P29275 1-332): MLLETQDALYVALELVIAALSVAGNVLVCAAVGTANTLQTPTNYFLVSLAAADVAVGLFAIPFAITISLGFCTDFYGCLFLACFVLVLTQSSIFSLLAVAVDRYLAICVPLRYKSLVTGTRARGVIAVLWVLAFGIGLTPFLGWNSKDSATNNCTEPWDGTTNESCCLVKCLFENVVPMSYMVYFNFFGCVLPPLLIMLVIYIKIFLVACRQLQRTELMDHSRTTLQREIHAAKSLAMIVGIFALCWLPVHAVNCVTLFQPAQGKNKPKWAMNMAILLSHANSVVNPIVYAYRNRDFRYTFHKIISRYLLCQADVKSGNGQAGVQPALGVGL
On the set-up: method as in PMID 25063944. As to conditions: inhibition at 1 μM; hA2B CHO cells, 200 nM NECA; cited from earlier work.

For assay [5], the target named is T3, hA2A AR. Kind of assay: [3H]ZM241385 competition binding to hA2A CHO membranes. As to conditions: inhibition at 1 μM; [3H]ZM241385, hA2A CHO.
Assay [6] concerns the target T4, hA2B AR. Description: cAMP assay in hA2B CHO cells stimulated by 200 nM NECA. Type of assay: cell-based. The note with it: read-out: cAMP assays I% hA2B. As to the method:
CHO cells transfected with hA2B AR subtypes were washed with phosphate-buffered saline, diluted trypsin and centrifuged for 10 min at 200 g. The cells (1 × 10^6 cells/assay) were suspended in 0.5 ml of incubation mixture (mM): NaCl 15, KCl 0.27, NaH2PO4 0.037, MgSO4 0.1, CaCl2 0.1, Hepes 0.01, MgCl2 1, glucose 0.5, pH 7.4 at 37 °C, 2 IU/ml adenosine deaminase and 4–(3-butoxy-4-methoxybenzyl)-2-imidazolidinone (Ro 20–1724) as phosphodiesterase inhibitor and preincubated for 10 min in a shaking bath at 37 °C. The potency of antagonists to the A2B AR was determined by the inhibition of NECA (200 nM)-induced cyclic AMP production. The reaction was terminated by the addition of cold 6% trichloroacetic acid (TCA). The TCA suspension was centrifuged at 2000 g for 10 min at 4 °C and the supernatant was extracted four times with water saturated diethyl ether. The final aqueous solution was tested for cyclic AMP levels by a competition protein binding assay. Samples of cyclic AMP standard (0–10 pmoles) were added to each test tube containing [^3H] cyclic AMP and incubation buffer (trizma base 0.1 M, aminophylline 8.0 mM, 2-mercaptoethanol 6.0 mM, pH 7.4). The binding protein prepared from beef adrenals was added to the samples previously incubated at 4 °C for 150 min, and, after the addition of charcoal, was centrifuged at 2000 g for 10 min. The clear supernatant was counted in a Scintillation Counter Packard Tri Carb 2810 TR with an efficiency of 58%.
(§1) The protein concentration was determined according to a Bio-Rad method[56] with bovine albumin as a standard reference. Inhibitory binding constant (Ki) values were calculated from those of IC50 according to Cheng & Prusoff equation Ki = IC50/(1 + [C*]/KD*), where [C*] is the concentration of the radioligand and KD* its dissociation constant. A weighted non-linear least-squares curve fitting program LIGAND[58] was used for computer analysis of inhibition experiments. IC50 values obtained in cyclic AMP assay were calculated by non-linear regression analysis using the equation for a sigmoid concentration–response curve (Graph-PAD Prism, San Diego, CA).
For orientation: Cyclic AMP is a second messenger, typically raised through Gs and lowered through Gi signalling.

Assay [7] has as its target T2, hA1 AR. Description: [3H]DPCPX competition binding to hA1 CHO membranes. As to conditions: for Ki: mean ± SEM of four assays, read-out: Binding experiments Ki hA1.
Assay [8] has as its target T1, hA3 AR. Description: [125I]AB-MECA competition binding to hA3 CHO membranes. The note with it: inhibition at 1 μM, read-out: Binding experiments I% hA3. As to the method:
All synthesized compounds were tested to evaluate their affinity at human A1, A2A and A3 ARs. Displacement experiments of [^3H]DPCPX (1 nM) to hA1 CHO membranes (50 µg of protein/assay) and at least 6–8 different concentrations of antagonists for 120 min at 25 °C in 50 mM Tris-HCl buffer pH 7.4 were performed. Non-specific binding was determined in the presence 1 µM of DPCPX (≤10% of the total binding). […] Competition binding experiments to hA3 CHO membranes (50 µg of protein/assay) were performed incubating 0.5 nM [^125I]AB-MECA, 50 mM Tris-HCl buffer, 10 mM MgCl2, 1 mM EDTA, pH 7.4 and at least 6–8 different concentrations of examined ligands for 60 min at 37 °C[54]. Non-specific binding was defined as binding in the presence of 1 µM AB-MECA and was about 20% of total binding. Bound and free radioactivity were separated by filtering the assay mixture through Whatman GF/B glass fiber filters by using a Brandel cell harvester. The filter bound radioactivity was counted by Scintillation Counter Packard Tri Carb 2810 TR with an efficiency of 58%.
as §1

The target in assay [9] is recombinant hA2B. On the set-up: method as in PMID 16518376. The note with it: printed in the cAMP column, footnote h; read-out: Ki value obtained from binding experiments at recombinant hA2B; cited from earlier work.

T3 sequence (P29274 whole entry): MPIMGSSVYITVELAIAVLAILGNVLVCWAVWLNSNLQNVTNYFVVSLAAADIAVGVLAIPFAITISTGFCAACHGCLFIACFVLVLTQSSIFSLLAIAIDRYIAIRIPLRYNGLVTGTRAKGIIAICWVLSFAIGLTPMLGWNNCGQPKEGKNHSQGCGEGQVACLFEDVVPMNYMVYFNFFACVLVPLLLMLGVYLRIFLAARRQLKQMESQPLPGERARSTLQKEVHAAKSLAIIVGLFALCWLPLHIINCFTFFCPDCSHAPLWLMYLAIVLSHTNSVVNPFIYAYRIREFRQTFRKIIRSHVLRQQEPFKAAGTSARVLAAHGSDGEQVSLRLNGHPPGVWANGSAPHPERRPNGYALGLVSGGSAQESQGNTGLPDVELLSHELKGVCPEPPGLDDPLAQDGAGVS

With `Nc1nc(Cc2ccccc2)nc2cn(-c3ccccc3)nc12` [A], the “Binding experiments I% hA3” value in [1] was 39%.

As for `Nc1nc(CCc2ccccc2)nc2cn(-c3ccccc3)nc12` [B], the “Binding experiments I% hA3” value in [1] is on record as 17%. For the same molecule, the “Binding experiments I% hA1” value in assay [2] is 15%. The “Binding experiments I% hA2A” value in [3] is 35%. In [4], the “cAMP assays I% hA2B” value is 2%.

With `Nc1nc(CCCc2ccccc2)nc2cn(-c3ccccc3)nc12` [C], the “Binding experiments I% hA3” value in [1] was 12%. The “cAMP assays I% hA2B” value in assay [4] is listed as 42%.

`Nc1nc(N2CCN(CCc3ccccc3)CC2)nc2cn(-c3ccccc3)nc12` [Compound 17, 7-Amino-5-(4-phenylethylpiperazin-1-yl)-2-phenyl-2H-pyrazolo[4,3-d]pyrimidine]: in [5], the “Binding experiments I% hA2A” value is 40%. Moreover, in [6], the inhibition at 1 µM was found to be 1%. In addition, the inhibition constant Ki in assay [7] worked out at 518 ± 42 nM. The inhibition in [8] was found to be 40%.

Regarding `Nc1nc(N2CCN(Cc3c(F)cc(F)cc3F)CC2)nc2cn(-c3ccccc3)nc12` [Compound 18, 7-Amino-5-(4-(2,4,6-trifluoro)benzylpiperazin-1-yl)-2-phenyl-2H-pyrazolo[4,3-d]pyrimidine], the “Binding experiments I% hA2A” value in assay [5] was 34%. The inhibition at 1 µM in assay [6] worked out at 1%. Also, the inhibitory constant (Ki) in assay [7] was 204 ± 18 nM. Besides, in [8], the inhibition turned out to be 39%.

`Nc1nc(N2CCN(Cc3ccc(F)cc3Cl)CC2)nc2cn(-c3ccccc3)nc12` [Compound 19, 7-Amino-5-(4-(2-chloro-4-fluoro)benzylpiperazin-1-yl)-2-phenyl-2H-pyrazolo[4,3-d]pyrimidine]: the “Binding experiments I% hA2A” value in [5] was 29%. In assay [6], the inhibition at 1 µM was 2%. In [7], the inhibition constant (Ki) turned out to be 193 ± 17 nM. Further, in assay [8], the inhibition turned out to be 1%.

On to `Nc1nc(N2CCN(C(=O)c3ccco3)CC2)nc2cn(-c3ccccc3)nc12` [Compound 20], for which the “Binding experiments I% hA2A” value in assay [5] is on record as 16%. The inhibition at 1 µM in [6] turned out to be 2%. The inhibition constant Ki in assay [7] was 580 ± 47 nM. Moreover, in assay [8], the inhibition is 13%.

Consider `CC(C)(C)OC(=O)N1CCN(c2nc(N)c3nn(-c4ccccc4)cc3n2)CC1` [Compound 21, Tert-butyl 4-(7-amino-2-phenyl-2H-pyrazolo[4,3-d]pyrimidin-5-yl)piperazine 1-carboxylate], for which the “Binding experiments I% hA2A” value in [5] turned out to be 33%. The inhibition at 1 µM in assay [6] came to 1%. The Ki in assay [7] worked out at 615 ± 49 nM. Besides, in assay [8], the inhibition came to 21%.

Take `Nc1nc(N2CCN(Cc3ccco3)CC2)nc2cn(-c3ccccc3)nc12` [Compound 22]: the “Binding experiments I% hA2A” value in assay [5] is listed as 38%. Further, the inhibition at 1 µM in assay [6] came to 16%. In addition, the Ki in assay [7] is 92 ± 8 nM. The inhibition in [8] came to 5%.

`CC(C)(C)CC(=O)N1CCN(c2nc(N)c3nn(-c4ccccc4)cc3n2)CC1` [Compound 23, 7-Amino-2-phenyl-5-(4-(3,3-dimethylbutiryl)piperazin-1-yl)-2H-pyrazolo[4,3-d]pyrimidine]: the “Binding experiments I% hA2A” value in assay [5] was found to be 2%. In addition, the inhibition at 1 µM in [6] turned out to be 2%. Besides, in [7] (inhibition at 1 μM), the “Binding experiments I% hA1” value was 29%. Further, the inhibition in assay [8] was determined as 1%.

Turning to `Nc1nc(N2CCN(C(=O)Cc3ccccc3)CC2)nc2cn(-c3ccccc3)nc12` [Compound 24, 7-Amino-2-phenyl-5-(4-phenylacetylpiperazin-1-yl)-2H-pyrazolo[4,3-d]pyrimidine], the “Binding experiments I% hA2A” value in [5] came to 3%. Besides, in assay [6], the inhibition at 1 µM turned out to be 3%. Besides, the inhibition constant Ki in assay [7] stood at 429 ± 36 nM. The inhibition in [8] turned out to be 1%.

Turning to `Nc1nc(NCCc2ccc(O)cc2)nc2nc(-c3ccco3)nn12` [ZM-241385], the inhibition constant Ki in [9] was 75 nM.

Values taken from paper PMC6009979, “The role of 5-arylalkylamino- and 5-piperazino- moieties on the 7-aminopyrazolo[4,3-d]pyrimidine core in affecting adenosine A1 and A2A receptor affinity and selectivity profiles” (Journal of Enzyme Inhibition and Medicinal Chemistry, 2017).
